Holding throughout (assay type): biochemical
Test [1] concerns the target T1, JAK3 (Homo sapiens, UniProt P52333).
T1 sequence (P52333 1-1124): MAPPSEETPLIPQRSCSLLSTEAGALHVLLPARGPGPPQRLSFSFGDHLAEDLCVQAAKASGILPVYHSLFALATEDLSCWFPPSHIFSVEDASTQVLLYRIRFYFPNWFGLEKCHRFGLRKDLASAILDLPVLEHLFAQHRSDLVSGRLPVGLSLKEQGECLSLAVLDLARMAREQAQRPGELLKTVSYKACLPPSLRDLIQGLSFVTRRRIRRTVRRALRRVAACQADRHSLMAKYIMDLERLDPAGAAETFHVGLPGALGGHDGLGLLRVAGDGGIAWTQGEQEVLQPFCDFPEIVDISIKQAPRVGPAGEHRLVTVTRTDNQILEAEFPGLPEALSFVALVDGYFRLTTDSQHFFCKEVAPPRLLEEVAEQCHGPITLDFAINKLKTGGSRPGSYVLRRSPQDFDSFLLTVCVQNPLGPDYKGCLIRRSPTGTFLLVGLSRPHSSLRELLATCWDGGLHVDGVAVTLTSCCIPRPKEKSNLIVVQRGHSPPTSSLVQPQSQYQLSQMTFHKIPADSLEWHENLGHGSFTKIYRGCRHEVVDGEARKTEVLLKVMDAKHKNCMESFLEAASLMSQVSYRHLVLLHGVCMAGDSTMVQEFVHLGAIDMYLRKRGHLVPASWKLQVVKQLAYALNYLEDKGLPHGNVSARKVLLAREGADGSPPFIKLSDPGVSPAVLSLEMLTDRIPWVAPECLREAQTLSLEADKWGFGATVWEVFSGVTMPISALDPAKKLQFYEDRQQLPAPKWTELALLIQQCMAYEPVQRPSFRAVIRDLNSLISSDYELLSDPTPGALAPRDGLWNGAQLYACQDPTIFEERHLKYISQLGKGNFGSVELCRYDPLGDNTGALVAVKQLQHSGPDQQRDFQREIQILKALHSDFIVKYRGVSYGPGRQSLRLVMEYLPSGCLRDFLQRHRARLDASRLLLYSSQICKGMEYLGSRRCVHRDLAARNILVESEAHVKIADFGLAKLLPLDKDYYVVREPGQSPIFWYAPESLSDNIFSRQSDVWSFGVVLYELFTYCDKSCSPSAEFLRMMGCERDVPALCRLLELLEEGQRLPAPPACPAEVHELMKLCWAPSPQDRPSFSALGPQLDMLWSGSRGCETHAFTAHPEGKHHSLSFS
Briefly: Inhibition of a panel of kinases, in vitro HotSpot kinase assay: JAK3. Particulars: D-compounds panel data; 1 μM ATP; read-out: IC50 JAK3.

Test [2] addresses LCK (Homo sapiens, UniProt P06239). Briefly: Inhibition of a panel of kinases, in vitro HotSpot kinase assay: LCK. Particulars: D-compounds panel data; 1 μM ATP; read-out: IC50 LCK.
Test [3] has as its target T2, ITK (Homo sapiens, UniProt Q08881).
T2 sequence (Q08881 1-620): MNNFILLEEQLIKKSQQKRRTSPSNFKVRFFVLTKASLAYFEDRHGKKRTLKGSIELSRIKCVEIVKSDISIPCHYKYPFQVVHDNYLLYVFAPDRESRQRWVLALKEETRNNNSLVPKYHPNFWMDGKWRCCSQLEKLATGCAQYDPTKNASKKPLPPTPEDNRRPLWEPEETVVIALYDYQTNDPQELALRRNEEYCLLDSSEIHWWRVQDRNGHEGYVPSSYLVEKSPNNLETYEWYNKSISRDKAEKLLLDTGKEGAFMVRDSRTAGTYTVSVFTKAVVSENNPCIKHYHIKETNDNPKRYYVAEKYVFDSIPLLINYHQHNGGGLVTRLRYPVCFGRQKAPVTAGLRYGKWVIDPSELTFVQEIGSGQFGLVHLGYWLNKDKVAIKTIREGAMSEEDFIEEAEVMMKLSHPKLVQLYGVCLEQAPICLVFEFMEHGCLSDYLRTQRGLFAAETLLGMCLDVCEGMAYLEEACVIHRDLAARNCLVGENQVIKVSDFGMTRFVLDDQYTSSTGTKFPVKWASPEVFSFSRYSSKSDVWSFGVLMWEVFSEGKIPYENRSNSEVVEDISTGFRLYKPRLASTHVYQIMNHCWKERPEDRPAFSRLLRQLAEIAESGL
Briefly: Inhibition of a panel of kinases, in vitro HotSpot kinase assay: ITK. Particulars: D-compounds panel data; 1 μM ATP. On the procedure:
(§1) The degree of inhibition of a panel of kinases is determined using the in vitro HotSpot kinase assay (purified enzymes, ^33P-ATP, an appropriate substrate and 1 μM ATP).

The target of test [4] is EGFR (Homo sapiens, UniProt P00533). Briefly: Inhibition of a panel of kinases, in vitro HotSpot kinase assay: EGFR. To be noted: D-compounds panel data; 1 μM ATP. On the procedure:
as §1

Test [5] deals with SRC (Homo sapiens, UniProt P12931). Briefly: Inhibition of a panel of kinases, in vitro HotSpot kinase assay: SRC. To be noted: D-compounds panel data; 1 μM ATP. On the procedure: as §1
Test [6] has as its target T3, TEC (Homo sapiens, UniProt P42680).
T3 sequence (P42680 1-631): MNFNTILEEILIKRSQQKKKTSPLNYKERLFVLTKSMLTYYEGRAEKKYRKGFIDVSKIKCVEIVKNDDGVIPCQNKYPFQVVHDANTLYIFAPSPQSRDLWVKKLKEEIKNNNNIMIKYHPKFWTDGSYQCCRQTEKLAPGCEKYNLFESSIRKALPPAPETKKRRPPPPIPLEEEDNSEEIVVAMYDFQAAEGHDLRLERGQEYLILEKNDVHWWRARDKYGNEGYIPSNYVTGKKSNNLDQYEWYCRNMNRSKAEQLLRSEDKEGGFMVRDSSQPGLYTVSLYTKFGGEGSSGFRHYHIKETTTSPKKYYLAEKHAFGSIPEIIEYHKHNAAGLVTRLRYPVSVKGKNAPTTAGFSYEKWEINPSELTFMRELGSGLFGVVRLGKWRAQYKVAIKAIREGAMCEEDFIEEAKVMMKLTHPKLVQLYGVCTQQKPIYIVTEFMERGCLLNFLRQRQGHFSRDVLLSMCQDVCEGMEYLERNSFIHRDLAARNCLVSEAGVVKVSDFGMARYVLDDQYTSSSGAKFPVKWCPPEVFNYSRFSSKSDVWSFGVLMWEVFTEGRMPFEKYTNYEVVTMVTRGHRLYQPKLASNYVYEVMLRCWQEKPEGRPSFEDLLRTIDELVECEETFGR
Briefly: Inhibition of a panel of kinases, in vitro HotSpot kinase assay: TEC. Particulars: D-compounds panel data; 1 μM ATP. On the procedure:
as §1

Structures are written as SMILES.

Data on 10 compounds can be found in patent publication US20210070748A1, “INHIBITORS OF BRUTONS TYROSINE KINASE” (Pharmacyclics LLC, priority 2015, published 2021).

Sequence of SRC (P12931 whole entry): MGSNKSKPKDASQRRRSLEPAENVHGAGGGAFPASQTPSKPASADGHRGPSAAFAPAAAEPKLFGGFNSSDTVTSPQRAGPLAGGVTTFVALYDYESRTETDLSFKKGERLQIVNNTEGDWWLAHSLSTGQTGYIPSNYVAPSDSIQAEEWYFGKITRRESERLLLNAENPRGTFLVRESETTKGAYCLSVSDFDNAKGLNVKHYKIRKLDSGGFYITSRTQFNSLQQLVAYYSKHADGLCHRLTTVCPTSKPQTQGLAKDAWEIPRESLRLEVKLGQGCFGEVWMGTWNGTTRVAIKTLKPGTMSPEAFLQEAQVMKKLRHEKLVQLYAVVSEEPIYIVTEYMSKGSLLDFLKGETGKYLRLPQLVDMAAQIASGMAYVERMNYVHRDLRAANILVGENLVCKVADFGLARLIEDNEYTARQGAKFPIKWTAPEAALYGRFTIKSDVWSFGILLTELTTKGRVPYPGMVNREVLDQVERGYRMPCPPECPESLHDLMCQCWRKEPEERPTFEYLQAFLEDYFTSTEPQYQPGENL
Sequence of LCK (P06239 whole entry): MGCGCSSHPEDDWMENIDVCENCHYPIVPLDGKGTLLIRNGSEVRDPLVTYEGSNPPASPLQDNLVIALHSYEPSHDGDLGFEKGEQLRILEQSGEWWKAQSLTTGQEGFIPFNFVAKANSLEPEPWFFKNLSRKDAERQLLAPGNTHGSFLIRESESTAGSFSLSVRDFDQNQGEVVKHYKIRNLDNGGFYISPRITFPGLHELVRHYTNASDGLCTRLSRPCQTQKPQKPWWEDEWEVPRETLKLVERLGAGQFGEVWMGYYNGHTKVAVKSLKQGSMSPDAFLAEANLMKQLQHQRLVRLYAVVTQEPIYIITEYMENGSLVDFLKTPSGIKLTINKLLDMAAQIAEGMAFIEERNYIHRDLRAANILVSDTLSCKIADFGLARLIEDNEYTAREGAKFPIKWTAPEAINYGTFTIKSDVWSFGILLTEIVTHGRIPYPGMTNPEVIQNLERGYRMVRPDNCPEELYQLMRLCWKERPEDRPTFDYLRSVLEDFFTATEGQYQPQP
Sequence of EGFR (P00533 25-1210): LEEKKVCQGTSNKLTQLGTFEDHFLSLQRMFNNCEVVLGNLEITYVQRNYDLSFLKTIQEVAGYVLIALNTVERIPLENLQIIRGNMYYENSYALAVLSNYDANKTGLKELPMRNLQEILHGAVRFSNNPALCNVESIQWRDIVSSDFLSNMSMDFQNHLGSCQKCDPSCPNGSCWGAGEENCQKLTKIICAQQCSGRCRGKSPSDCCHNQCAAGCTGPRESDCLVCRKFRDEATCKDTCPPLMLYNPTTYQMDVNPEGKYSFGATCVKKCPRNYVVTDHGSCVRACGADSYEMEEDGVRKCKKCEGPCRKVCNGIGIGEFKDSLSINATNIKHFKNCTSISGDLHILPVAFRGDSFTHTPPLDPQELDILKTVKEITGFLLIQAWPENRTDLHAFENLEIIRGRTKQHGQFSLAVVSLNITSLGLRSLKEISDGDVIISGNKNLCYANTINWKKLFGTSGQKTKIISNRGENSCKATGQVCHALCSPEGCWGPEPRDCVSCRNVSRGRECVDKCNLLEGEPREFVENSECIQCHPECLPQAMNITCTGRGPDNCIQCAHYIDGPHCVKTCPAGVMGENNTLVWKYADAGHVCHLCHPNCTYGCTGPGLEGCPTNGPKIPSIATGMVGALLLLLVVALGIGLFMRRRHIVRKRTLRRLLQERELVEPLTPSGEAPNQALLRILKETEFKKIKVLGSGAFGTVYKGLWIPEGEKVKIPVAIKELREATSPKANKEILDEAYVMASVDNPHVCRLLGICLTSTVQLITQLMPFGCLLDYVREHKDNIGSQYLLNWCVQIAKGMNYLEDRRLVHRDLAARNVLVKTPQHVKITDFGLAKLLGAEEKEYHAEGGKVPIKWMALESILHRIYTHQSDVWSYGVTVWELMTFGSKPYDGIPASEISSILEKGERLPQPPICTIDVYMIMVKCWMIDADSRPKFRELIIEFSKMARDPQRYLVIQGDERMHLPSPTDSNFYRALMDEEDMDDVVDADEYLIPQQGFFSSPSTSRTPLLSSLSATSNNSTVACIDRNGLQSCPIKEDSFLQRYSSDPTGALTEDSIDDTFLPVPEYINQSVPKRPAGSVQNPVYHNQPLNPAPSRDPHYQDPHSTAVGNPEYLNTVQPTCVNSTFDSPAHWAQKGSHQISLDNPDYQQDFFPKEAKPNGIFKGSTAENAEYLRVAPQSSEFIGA

With `C[C@@H]1[C@H](NC(=O)c2ccc(C(C)(C)O)cc2F)CCCN1c1nnc(C(N)=O)c(Nc2cnn(C)c2)n1` [Example D-308, 3-[(2R,3R)-3-[2-fluoro-4-(2-hydroxypropan-2-yl)benzamido]-2-methylpiperidin-1-yl]-5-[(1-methyl-1H-pyrazol-4-yl)amino]-1,2,4-triazine-6-carboxamide], the IC50 in test [1] is 1000 to 10000 nM; in test [2] it was 10 to 100 nM; in test [3], 10 to 100 nM; in test [4] it was 1000 to 10000 nM; in test [5] it was 10 to 100 nM; in test [6], no more than 10 nM.
For the compound `C[C@@H]1[C@H](NC(=O)c2cc(C3CC3)n(C)n2)CCCN1c1cnc(C(N)=O)c(Nc2cnn(C)c2)n1` [Example D-253, 5-[(2R,3R)-3-(5-cyclopropyl-1-methyl-1H-pyrazole-3-amido)-2-methylpiperidin-1-yl]-3-[(1-methyl-1H-pyrazol-4-yl)amino]pyrazine-2-carboxamide], the IC50 in test [1] was 100 to 1000 nM; in test [2], 100 to 1000 nM; in test [3], 100 to 1000 nM; in test [4], 100 to 1000 nM; in test [5] it was 10 to 100 nM; in test [6], no more than 10 nM.
Consider `CCOCCOc1ccc(Nc2nc(N3CCC[C@@H](NC(=O)c4ccc(C5CC5)cc4)[C@H]3C)cnc2C(N)=O)cc1` [Example D-299, 5-[(2R,3R)-3-(4-cyclopropylbenzamido)-2-methylpiperidin-1-yl]-3-{[4-(2-ethoxyethoxy)phenyl]amino}pyrazine-2-carboxamide], for which the IC50 in test [1] was greater than 10000 nM; in test [2], greater than 10000 nM; in test [3], greater than 10000 nM; in test [4], greater than 10000 nM; in test [5], 1000 to 10000 nM; in test [6], 10 to 100 nM.
Turning to `C[C@@H]1[C@H](NC(=O)c2cc(C(C)(C)C)n[nH]2)CCCN1c1cnc(C(N)=O)c(Nc2cnn(C)c2)n1` [Example D-244, 5-[(2R,3R)-3-(3-tert-butyl-1H-pyrazole-5-amido)-2-methylpiperidin-1-yl]-3-[(1-methyl-1H-pyrazol-4-yl)amino]pyrazine-2-carboxamide], the half-inhibitory concentration (IC50) fell in the range of 100 to 1000 nM in test [1]; 100 to 1000 nM in test [2]; 100 to 1000 nM in test [3]; 1000 to 10000 nM in test [4]; 10 to 100 nM in test [5]; 10 to 100 nM in test [6].
Consider `C[C@@H]1[C@H](NC(=O)c2ccc(C(N)=O)cc2)CCCN1c1cnc(C(N)=O)c(Nc2cnn(C)c2)n1` [Example D-268, 1-N-[(2R,3R)-1-{5-carbamoyl-6-[(1-methyl-1H-pyrazol-4-yl)amino]pyrazin-2-yl}-2-methylpiperidin-3-yl]benzene-1,4-dicarboxamide], for which the IC50 was 1000 to 10000 nM in test [1]; 10 to 100 nM in test [2]; 100 to 1000 nM in test [3]; 100 to 1000 nM in test [4]; 10 to 100 nM in test [5]; no more than 10 nM in test [6].
Consider `COCCN(C)Cc1cc(Nc2nc(N3CCC[C@@H](NC(=O)c4ccc(C5CC5)cc4)[C@H]3C)cnc2C(N)=O)sn1` [Example D-269, 5-[(2R,3R)-3-(4-cyclopropylbenzamido)-2-methylpiperidin-1-yl]-3-[(3-{[(2-methoxyethyl)(methyl)amino]methyl}-1,2-thiazol-5-yl)amino]pyrazine-2-carboxamide], for which the IC50 in test [1] was 1000 to 10000 nM; in test [2], 100 to 1000 nM; in test [3], 100 to 1000 nM; in test [4] it was greater than 10000 nM; in test [5], 10 to 100 nM; in test [6], 100 to 1000 nM.
On to `C[C@@H]1[C@H](NC(=O)N(C)C)CCCN1c1cnc(C(N)=O)c(Nc2ccc(N3CCC(F)(F)CC3)cc2)n1` [Example D-306, 3-{[4-(4,4-difluoropiperidin-1-yl)phenyl]amino}-5-[(2R,3R)-3-[(dimethylcarbamoyl)amino]-2-methylpiperidin-1-yl]pyrazine-2-carboxamide], for which the IC50 in test [1] was 1000 to 10000 nM; in test [2], 100 to 1000 nM; in test [3], 100 to 1000 nM; in test [4] it was 1000 to 10000 nM; in test [5], 100 to 1000 nM; in test [6], 10 to 100 nM.
For `C[C@@H]1[C@H](NC(=O)c2ccc(C3CC3)cc2)CCCN1c1cnc(C(N)=O)c(NCC2=CCN(C)CC2)n1` [Example D-300, 5-[(2R,3R)-3-(4-cyclopropylbenzamido)-2-methylpiperidin-1-yl]-3-{[(1-methyl-1,2,3,6-tetrahydropyridin-4-yl)methyl]amino}pyrazine-2-carboxamide], the IC50 in test [1], in test [2], in test [3], in test [4], in test [5] and in test [6] was greater than 10000 nM each time.
Turning to `CCN(C)C(=O)N[C@@H]1CCCN(c2cnc(C(N)=O)c(Nc3cnn(C)c3)n2)[C@@H]1C` [Example D-304, 5-[(2R,3R)-3-{[ethyl(methyl)carbamoyl]amino}-2-methylpiperidin-1-yl]-3-[(1-methyl-1H-pyrazol-4-yl)amino]pyrazine-2-carboxamide], the IC50 in test [1] was in the range of 1000 to 10000 nM; in test [2], 100 to 1000 nM; in test [3], 1000 to 10000 nM; in test [4], 1000 to 10000 nM; in test [5], 100 to 1000 nM; in test [6], 10 to 100 nM.
For `C[C@@H]1[C@H](NC(=O)c2coc(C3CC3)n2)CCCN1c1cnc(C(N)=O)c(Nc2cnn(C)c2)n1` [Example D-257, 5-[(2R,3R)-3-(2-cyclopropyl-1,3-oxazole-4-amido)-2-methylpiperidin-1-yl]-3-[(1-methyl-1H-pyrazol-4-yl)amino]pyrazine-2-carboxamide], the IC50 in test [1] is 100 to 1000 nM; in test [2], 10 to 100 nM; in test [3], 100 to 1000 nM; in test [4] it was 100 to 1000 nM; in test [5], 10 to 100 nM; in test [6], no more than 10 nM.

The term IC50 denotes the point on the concentration scale where inhibition reaches its midpoint.
